In article PMC10056595, “Odorant-Binding Proteins and Chemosensory Proteins in Spodoptera frugiperda: From Genome-Wide Identification and Developmental Stage-Related Expression Analysis to the Perception of Host Plant Odors, Sex Pheromones, and Insecticides” (International Journal of Molecular Sciences, 2023):
pKi: −log10 of the molar value. Like-named read-outs stand apart in the source and are kept apart here.

What was measured:
SfruOBP31 [1] = target: T1, SfruOBP31 (Spodoptera frugiperda, UniProt A0A2H1W9W7); assay: fluorescence competitive binding assay with the probe 1-NPN; conditions: for pKi: competing ligand 2–20 µM, 2.0 µM 1-NPN, 2.0 µM protein, Ki < 20 µM recognized as binding; for binding of SfruOBP31 to the ligand (in words): competitive binding with 1-NPN, threshold Ki < 20 µM recognized as binding
Description: To investigate the ligand binding ability of SfruOBP31, we used a fluorescence competitive binding assay using the fluorescent probe N-phenyl-1-naphthylamine (1-NPN). Binding experiments were performed on a microplate reader using a Greiner 96 Black Flat Bottom. Among the ligands, we tested five host volatiles from the host plant Zea mays: decanal (97% purity, Shanghai Acmec Biochemical Co., Ltd., Shanghai, China), linalool (98% purity, Shanghai Acmec Biochemical Co., Ltd.), leaf alcohol (98% purity, Shanghai Acmec Biochemical Co., Ltd.), 1-nonanol (98% purity, Shanghai Acmec Biochemical Co., Ltd.), and cis-3-hexenyl acetate (98% purity, Shanghai Acmec Biochemical Co., Ltd.); four pheromones: (Z)-9-tetradecenyl acetate (93% purity, Shenzhen Regent Biochemical Technology Co., Ltd., Shenzhen, China), (Z)-11-hexadecenyl acetate (98% purity, Shanghai Bidd Medical Technology Co., Ltd., Shanghai, China), (Z)-7-dodecenyl acetate (90% purity, Shanghai Bidd Medical Technology Co., Ltd.), and (Z)-9-dodecenyl acetate (90% purity, Shanghai Bidd Medical Technology Co., Ltd.); and five pesticides: emamectin benzoate (90% purity, Energy Chemical), lufenuron (97.4% purity, Shanghai Yuanye Biotechnology Co., Ltd., Shanghai, China), chlorfenapyr (98% purity, Shanghai Yuanye Biotechnology Co., Ltd.), chlorantraniliprole (95% purity, Shanghai Yuanye Biotechnology Co., Ltd.), and lambda-cyhalothrin (96% purity, Guangdong Liwei Chemical Co., Ltd., Maoming, China). All chemicals used for testing and the fluorescent probe 1-NPN were dissolved in GC purify-grade methanol in a 400 µM solution. The 2.0 µM protein solution (in 10 mM HEPES and 100 mM NaCl buffer, pH 7.5) was titrated with 400 µM 1-NPN to a final concentration of 2–20 µM. The binding constant of the protein to 1-NPN was analyzed by assessing the continuous change of fluorescence value. Compounds of 2–20 µM concentration were added to the mixture of 2.0 µM 1-NPN and 2.0 µM protein or 2.0 µM 1-NPN alone to determine the binding rate of the ligands to the protein and the value of the fluorescence. The final fluorescence value was calculated as the fluorescence value after the addition of 1-NPN and protein with the competing ligand minus the fluorescence value after the addition of 1-NPN with the competing ligand only.
(§1) The dissociation constants (K1-NPN) of SfruOBP31 were calculated using Graphpad Prism 8 software. The dissociation constant (Ki) of 1-NPN by competing ligands was calculated with the following formula using IC50 value: Ki = [IC50]/(1 + [1-NPN]/K1-NPN). Here, IC50 is the concentration of competing ligands when the fluorescence intensity reaches half of the initial fluorescence intensity of 1-NPN, and [1-NPN] indicates the concentration of 1-NPN [16]. A threshold of Ki < 20 µM was recognized as binding.

SfruOBP31 [2] = target: T1, SfruOBP31; assay: 1-NPN fluorescence binding (titration of SfruOBP31 with 1-NPN); conditions: binding curve of SfruOBP31 with 1-NPN
Description: To investigate the ligand binding ability of SfruOBP31, we used a fluorescence competitive binding assay using the fluorescent probe N-phenyl-1-naphthylamine (1-NPN). Binding experiments were performed on a microplate reader using a Greiner 96 Black Flat Bottom. […] The binding constant of the protein to 1-NPN was analyzed by assessing the continuous change of fluorescence value. Compounds of 2–20 µM concentration were added to the mixture of 2.0 µM 1-NPN and 2.0 µM protein or 2.0 µM 1-NPN alone to determine the binding rate of the ligands to the protein and the value of the fluorescence. The final fluorescence value was calculated as the fluorescence value after the addition of 1-NPN and protein with the competing ligand minus the fluorescence value after the addition of 1-NPN with the competing ligand only.
as §1, with “A threshold of Ki < 20 µM was recognized as binding.” left out

[3] = Ki = [IC50]/(1 + [1-NPN]/K1-NPN)
[4] = Ki = [IC50]/(1 + [1-NPN]/K1-NPN), read-out: Ki

T1 sequence (A0A2H1W9W7 entry or part of it): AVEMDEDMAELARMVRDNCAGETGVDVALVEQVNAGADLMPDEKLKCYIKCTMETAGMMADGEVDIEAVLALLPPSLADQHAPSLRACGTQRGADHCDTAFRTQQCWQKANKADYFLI

pKi (SfruOBP31 [1]; [4])	Compound	pKi (SfruOBP31 [1]; [3])	binding of SfruOBP31 to the ligand (in words) (SfruOBP31 [1])	other results
	CC1(C)[C@H](C(=O)O[C@H](C#N)c2cccc(Oc3ccccc3)c2)[C@@H]1/C=C(\Cl)C(F)(F)F (racemic) [lambda-cyhalothrin, reference compound]	5.56		
	c1ccc(Nc2cccc3ccccc23)cc1 [1-NPN, N-phenyl-1-naphthylamine]			Bmax (1-NPN, printed in Figure 11A) (SfruOBP31 [2]): 702,842
4.85	CCCCCCCCCO [1-nonanol]			
5.30	CCCC/C=C\CCCCCCCCOC(C)=O [(Z)-9-tetradecenyl acetate]		selectively binds	
5.27	CCCC/C=C\CCCCCCCCCCOC(C)=O [(Z)-11-hexadecenyl acetate]		selectively binds	
	CNC(=O)c1cc(Cl)cc(C)c1NC(=O)c1cc(Br)nn1-c1ncccc1Cl [chlorantraniliprole, reference compound]	4.65	lack of binding	
	CCOCn1c(-c2ccc(Cl)cc2)c(C#N)c(Br)c1C(F)(F)F [chlorfenapyr, reference compound]			pKi (SfruOBP31 [1]; read-out: Ki (unit inferred)): 5.09
5.20	CC/C=C\CCOC(C)=O [cis-3-hexenyl acetate]			
4.71	CCCCCCCCCC=O [decanal]			
	C=CC(C)(O)CCC=C(C)C (centres unmarked) [linalool]	5.39		
	O=C(NC(=O)c1c(F)cccc1F)Nc1cc(Cl)c(OC(F)(F)C(F)C(F)(F)F)cc1Cl (centres unmarked) [lufenuron, reference compound]	4.43	lack of binding	

Compound	pKi (SfruOBP31 [1]; [4])	pKi (SfruOBP31 [1]; [3])	binding of SfruOBP31 to the ligand (in words) (SfruOBP31 [1])	other results
emamectin benzoate [reference compound]	4.56		lack of binding	
